These results are taken from patent US12577206B2 (BRISTOL-MYERS SQUIBB COMPANY, priority 2020, dated 2026).

pEC50: −log10 of the molar value. A value given as a limit tells only on which side of the number the result lay.

Experiment [1] addresses T1, human FPR1 (Homo sapiens, UniProt P21462).
T1 sequence (P21462 1-350): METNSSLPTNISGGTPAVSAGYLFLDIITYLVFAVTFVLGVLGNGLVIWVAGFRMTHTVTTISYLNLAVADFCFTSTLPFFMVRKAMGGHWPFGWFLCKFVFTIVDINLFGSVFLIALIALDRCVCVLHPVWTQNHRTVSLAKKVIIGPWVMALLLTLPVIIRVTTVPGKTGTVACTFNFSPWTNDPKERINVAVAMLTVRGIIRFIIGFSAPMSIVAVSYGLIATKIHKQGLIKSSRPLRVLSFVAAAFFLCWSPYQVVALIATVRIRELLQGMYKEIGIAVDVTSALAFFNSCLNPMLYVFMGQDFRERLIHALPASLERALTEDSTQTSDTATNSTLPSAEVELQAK
Description: FPR1 cyclic adenosine monophosphate (cAMP) assay. Type of experiment: cell-based. The settings on record: CHO cells overexpressing human FPR1; forskolin 10 μM; inhibition of cAMP production; HTRF; read-out: hFPR1 cAMP2 EC50. The method, boiled down: (§1)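 CHO/hFPR1 4,000 cells/well, forskolin 10 μM final; CHO/hFPR2 2,000 cells/well, forskolin 5 μM final. IBMX 200 μM, DMSO 1%, DPBS + Ca/Mg + 0.1% BSA, 30 min rt. HTRF cAMP; 4-PL fit.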
(In general: Changes in cAMP serve as a functional read-out for many G protein-coupled receptors.)

In experiment [2] the target is T2, human FPR2 (Homo sapiens, UniProt P25090).
T2 sequence (P25090 1-351): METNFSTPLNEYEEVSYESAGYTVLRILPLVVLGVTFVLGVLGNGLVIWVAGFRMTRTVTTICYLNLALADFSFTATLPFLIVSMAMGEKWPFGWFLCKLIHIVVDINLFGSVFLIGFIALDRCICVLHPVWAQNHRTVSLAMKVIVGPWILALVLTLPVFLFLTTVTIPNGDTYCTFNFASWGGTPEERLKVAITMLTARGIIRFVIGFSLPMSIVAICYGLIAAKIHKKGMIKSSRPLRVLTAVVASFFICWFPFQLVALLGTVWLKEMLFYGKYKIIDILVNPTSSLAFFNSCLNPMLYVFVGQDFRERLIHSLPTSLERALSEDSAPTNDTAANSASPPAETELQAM
Briefly: FPR2 cyclic adenosine monophosphate (cAMP) assay. It is filed as cell-based. The settings on record: CHO cells overexpressing human FPR2; forskolin 5 μM; inhibition of cAMP production; HTRF; read-out: hFPR2 cAMP2 EC50. The essentials:
as §1

For orientation: pEC50 means the negative decadic logarithm of the EC50, by convention in mol/L. As to `COc1ccc(-c2c(NC(=O)c3ccc(OC(F)F)cc3)c(=O)n(-c3ncccc3C(F)(F)F)n2C)c(F)c1` [Example 263, 4-(difluoromethoxy)-N-[5-(2-fluoro-4-methoxyphenyl)-1-methyl-3-oxo-2-[3-(trifluoromethyl)pyridin-2-yl]-2,3-dihydro-1H-pyrazol-4-yl]benzamide], the pEC50 is 5.77 in experiment [1] and 8.10 in experiment [2].
The matching figures for `COc1cc(F)c(-c2c(NC(=O)c3ccc(OC(F)F)cc3)c(=O)n(-c3nc(NCC4CC4)ccc3C(F)(F)F)n2C)c(F)c1` [Example 264, N-(2-{6-[(cyclopropylmethyl)amino]-3-(trifluoromethyl)pyridin-2-yl}-5-(2,6-difluoro-4-methoxyphenyl)-1-methyl-3-oxo-2,3-dihydro-1H-pyrazol-4-yl)-4-(difluoromethoxy)benzamide]: less than 5.30 and 8.70.
In the case of `COc1cc(F)c(-c2c(NC(=O)c3ccc(OC(F)F)cc3)c(=O)n(-c3nc(NC(C)(C)C)ccc3C(F)(F)F)n2C)c(F)c1` [Example 265, N-{2-[6-(tert-butylamino)-3-(trifluoromethyl)pyridin-2-yl]-5-(2,6-difluoro-4-methoxyphenyl)-1-methyl-3-oxo-2,3-dihydro-1H-pyrazol-4-yl}-4-(difluoromethoxy)benzamide], the pEC50 in experiment [1] is less than 5.00; in experiment [2], 8.70.
Regarding `COc1cc(F)c(-c2c(NC(=O)c3ccc(OC(F)F)cc3)c(=O)n(-c3nc(NC4(C)CC4)ccc3C(F)(F)F)n2C)c(F)c1` [Example 266, N-[5-(2,6-difluoro-4-methoxyphenyl)-1-methyl-2-{6-[(1-methylcyclopropyl)amino]-3-(trifluoromethyl)pyridin-2-yl}-3-oxo-2,3-dihydro-1H-pyrazol-4-yl]-4-(difluoromethoxy)benzamide], the pEC50 in experiment [1] is less than 5.00; in experiment [2] it was 8.40.
On to `COc1cc(F)c(-c2c(NC(=O)c3ccc(OC(F)F)cc3)c(=O)n(-c3nc(N(C4CC4)C4CC4)ccc3C(F)(F)F)n2C)c(F)c1` [Example 267, N-{2-[6-(dicyclopropylamino)-3-(trifluoromethyl)pyridin-2-yl]-5-(2,6-difluoro-4-methoxyphenyl)-1-methyl-3-oxo-2,3-dihydro-1H-pyrazol-4-yl}-4-(difluoromethoxy)benzamide], for which the pEC50 in experiment [1] was 5.15; in experiment [2], 8.70.
Turning to `COc1cc(F)c(-c2c(NC(=O)c3ccc(OC(F)F)cc3)c(=O)n(-c3nc(N4CCN(S(C)(=O)=O)CC4)ccc3C(F)(F)F)n2C)c(F)c1` [Example 268, N-[5-(2,6-difluoro-4-methoxyphenyl)-2-[6-(4-methanesulfonylpiperazin-1-yl)-3-(trifluoromethyl)pyridin-2-yl]-1-methyl-3-oxo-2,3-dihydro-1H-pyrazol-4-yl]-4-(difluoromethoxy)benzamide], the pEC50 was 5.82 in experiment [1] and 8.70 in experiment [2].
Consider `COc1cc(F)c(-c2c(NC(=O)c3ccc(OC(F)F)cc3)c(=O)n(-c3nc(N4CCN(CC(F)(F)F)CC4)ccc3C(F)(F)F)n2C)c(F)c1` [Example 269, N-[5-(2,6-difluoro-4-methoxyphenyl)-1-methyl-3-oxo-2-{6-[4-(2,2,2-trifluoroethyl)piperazin-1-yl]-3-(trifluoromethyl)pyridin-2-yl}-2,3-dihydro-1H-pyrazol-4-yl]-4-(difluoromethoxy)benzamide], for which the results for the pEC50 in experiment [1] and in experiment [2] were 5.48 and 8.52, respectively.
For the compound `COc1cc(F)c(-c2c(NC(=O)c3ccc(OC(F)F)cc3)c(=O)n(-c3nc(N4CCN(CC(F)F)CC4)ccc3C(F)(F)F)n2C)c(F)c1` [Example 270, N-[5-(2,6-difluoro-4-methoxyphenyl)-2-{6-[4-(2,2-difluoroethyl)piperazin-1-yl]-3-(trifluoromethyl)pyridin-2-yl}-1-methyl-3-oxo-2,3-dihydro-1H-pyrazol-4-yl]-4-(difluoromethoxy)benzamide], the pEC50 in experiment [1] was 5.47; in experiment [2] it was 8.22.
As for `COc1cc(F)c(-c2c(NC(=O)c3ccc(OC(F)F)cc3)c(=O)n(-c3nc(NCC(C)(C)O)ccc3C(F)(F)F)n2C)c(F)c1` [Example 271, N-[5-(2,6-difluoro-4-methoxyphenyl)-2-{6-[(2-hydroxy-2-methylpropyl)amino]-3-(trifluoromethyl)pyridin-2-yl}-1-methyl-3-oxo-2,3-dihydro-1H-pyrazol-4-yl]-4-(difluoromethoxy)benzamide], the pEC50 in experiment [1] is less than 5.00; in experiment [2] it was 8.52.
The corresponding values for `COc1cc(F)c(-c2c(NC(=O)c3ccc(OC(F)F)cc3)c(=O)n(-c3nc(NC[C@H](C)O)ccc3C(F)(F)F)n2C)c(F)c1` [Example 272, N-[5-(2,6-difluoro-4-methoxyphenyl)-2-(6-{[(2S)-2-hydroxypropyl]amino}-3-(trifluoromethyl)pyridin-2-yl)-1-methyl-3-oxo-2,3-dihydro-1H-pyrazol-4-yl]-4-(difluoromethoxy)benzamide] are less than 5.00 and 9.00.
The matching figures for `COc1cc(F)c(-c2c(NC(=O)c3ccc(OC(F)F)cc3)c(=O)n(-c3nc(NC[C@@H](C)O)ccc3C(F)(F)F)n2C)c(F)c1` [Example 273]: less than 5.30 and 8.52.
For `COc1cc(F)c(-c2c(NC(=O)c3ccc(OC(F)F)cc3)c(=O)n(-c3nc(NC[C@H](O)C(F)(F)F)ccc3C(F)(F)F)n2C)c(F)c1` [Example 274, N-[5-(2,6-difluoro-4-methoxyphenyl)-1-methyl-3-oxo-2-(6-{[(2S)-3,3,3-trifluoro-2-hydroxypropyl]amino}-3-(trifluoromethyl)pyridin-2-yl)-2,3-dihydro-1H-pyrazol-4-yl]-4-(difluoromethoxy)benzamide], the pEC50 in experiment [1] is less than 5.30; in experiment [2] it was 8.70.
As for `COc1cc(F)c(-c2c(NC(=O)c3ccc(OC(F)F)cc3)c(=O)n(-c3nc(C(C)(C)O)ccc3C(F)(F)F)n2C)c(F)c1` [Example 275, N-[5-(2,6-difluoro-4-methoxyphenyl)-2-[6-(2-hydroxypropan-2-yl)-3-(trifluoromethyl)pyridin-2-yl]-1-methyl-3-oxo-2,3-dihydro-1H-pyrazol-4-yl]-4-(difluoromethoxy)benzamide], the pEC50 in experiment [1] was less than 5.00; in experiment [2] it was 8.30.
As to `COc1cc(F)c(-c2c(NC(=O)c3ccc(OC(F)F)cc3)c(=O)n(-c3nc(C(C)(C)O)ccc3Cl)n2C)c(F)c1` [Example 276, N-{2-[3-chloro-6-(2-hydroxypropan-2-yl)pyridin-2-yl]-5-(2,6-difluoro-4-methoxyphenyl)-1-methyl-3-oxo-2,3-dihydro-1H-pyrazol-4-yl}-4-(difluoromethoxy)benzamide], the pEC50 was 5.54 in experiment [1] and 8.40 in experiment [2].
Consider `Cn1c(-c2ccc(C3CC3)cc2)c(NC(=O)c2ccc(OC(F)F)cc2)c(=O)n1-c1ncccc1C(F)(F)F` [Example 277, N-[5-(4-cyclopropylphenyl)-1-methyl-3-oxo-2-[3-(trifluoromethyl)pyridin-2-yl]-2,3-dihydro-1H-pyrazol-4-yl]-4-(difluoromethoxy)benzamide], for which the figures for the pEC50 in experiment [1] and in experiment [2] were 6.14 and 7.77, respectively.
Consider `COCCOc1ccc(C(F)(F)F)c(-n2c(=O)c(NC(=O)c3ccc(OC(F)F)cc3)c(-c3c(F)cc(OC)cc3F)n2C)n1` [Example 278, N-[5-(2,6-difluoro-4-methoxyphenyl)-2-[6-(2-methoxyethoxy)-3-(trifluoromethyl)pyridin-2-yl]-1-methyl-3-oxo-2,3-dihydro-1H-pyrazol-4-yl]-4-(difluoromethoxy)benzamide], for which the pEC50 in experiment [1] is less than 5.00; in experiment [2], 8.70.
As for `COc1cc(F)c(-c2c(NC(=O)c3ccc(OC(F)F)cc3)c(=O)n(-c3nc(NCC(C)(C)C(N)=O)ccc3C(F)(F)F)n2C)c(F)c1` [Example 279, N-(2-{6-[(2-carbamoyl-2,2-dimethylethyl)amino]-3-(trifluoromethyl)pyridin-2-yl}-5-(2,6-difluoro-4-methoxyphenyl)-1-methyl-3-oxo-2,3-dihydro-1H-pyrazol-4-yl)-4-(difluoromethoxy)benzamide], the values for the pEC50 in experiment [1] and in experiment [2] were less than 5.00 and 8.70, respectively.
Turning to `COc1cc(F)c(-c2c(NC(=O)c3ccc(OC(F)F)cc3)c(=O)n(-c3nc(N4CC[C@H](O)C4)ccc3C(F)(F)F)n2C)c(F)c1` [Example 280, N-[5-(2,6-difluoro-4-methoxyphenyl)-2-{6-[(3S)-3-hydroxypyrrolidin-1-yl]-3-(trifluoromethyl)pyridin-2-yl}-1-methyl-3-oxo-2,3-dihydro-1H-pyrazol-4-yl]-4-(difluoromethoxy)benzamide], the results for the pEC50 in experiment [1] and in experiment [2] were 5.57 and 8.70, respectively.
